{
  "source": "paper PMC5321741",
  "about": "“Arylmethylamino steroids as antiparasitic agents” (Nature Communications, 2017)",
  "key": {"[1]": {"system": "P. berghei transmission from mice to Anopheles gambiae mosquitoes", "assay": "in vivo transmission-blocking assay", "parameters": "species or system Plasmodium berghei", "details": "100 mg kg−1 i.p. daily, three doses; 4 days post passage", "procedure": "We further tested the activity of compound 1o on parasite transmission from mice to Anopheles gambiae mosquitoes. For this, P. berghei-infected mice received a daily injection of compound 1o for 3 days starting 24 h post passage and were exposed to mosquito bites 24 h after each injection. Tween 80 (Tw80) and methylene blue (MB) served as negative and positive controls, respectively. As with MB, compound 1o limited parasite multiplication in mice, albeit to a lesser extent (Fig. 3a). […]\nFigure 3 Effect of compound 1o on P. berghei multiplication in mice and on parasite transmission to mosquitoes. […] Parasitemia was monitored daily and the mean± s.d. of three independent experiments are plotted. […] (b) Prevalence (percentage of infected mosquitoes) and (c) infection intensity (mean number of parasites per infected midgut) were determined 7 days post infectious blood feeding. […] Significance for differences between treatments was calculated using generalized linear models with treatment, time, and repeats as variables, ***P value <0.001 (a–c). n, number of mosquitoes. […] Survival of treated gametocytes was calculated for each concentration relative to parasites exposed to vehicle. […]\nParasitaemia was determined daily via FACS analysis (FACSCalibur, BD Bioscience). […]"}, "[2]": {"assay": "hepatic microsome stability", "format": "in vitro ADME", "details": "for remaining at 1 h: liver microsomes, read-out: Hepatic Microsome Stability % remaining after 1 h", "procedure": "Pharmacokinetic data were obtained for compound 1o at the Sanford-Burnham Medical Research Institute according to established procedures. Compound solubility in an aqueous solution was measured using an automated kinetic solubility method. The concentration of the compound in a saturated pH-buffered aqueous solution was determined via UV absorbance (250–498 nm) and compared with the spectra of a precipitation-free reference solution. The plasma stability of the compound was determined at a single concentration using species-specific plasma. The percentage of parent compound remaining after 3 h was determined via LC-MS/MS. The percentage of compound 1o bound to plasma proteins was determined through rapid equilibrium dialysis and quantified via LC-MS/MS. Metabolic stability of the compound was determined at a single concentration using species-specific liver microsomes that contained cytochrome P450s, flavin-monooxygenases, carboxyl-esterases, epoxide hydrolases, and other drug-metabolizing enzymes. The quantification was carried out via LC-MS/MS. Membrane permeability of compound 1o was measured using an in vitro model for the passive transport from the gastrointestinal tract into the blood system. A double-sink parallel artificial membrane permeability assay PAMPA, in a 96-well format was employed."}, "[3]": {"system": "P. berghei asexual stages", "assay": "ex vivo drug assay (luciferase), asexual stages", "format": "cell-based", "details": "Plasmodium berghei, 24 h, read-out: IC50 against P. berghei ex vivo", "procedure": "Plates frozen at −80 °C were thawed at 37 °C. The cells were lysed at room temperature in 10 μl 1x luciferin lysis buffer (Luciferase Cell Culture Lysis 5 × reagent, Promega), and 100 μl luciferase assay substrate was added to each well (Luciferase Assay System, Promega). Luciferase activity was measured on a luminescence plate reader (Mithras LB940 luminometer, Berthold Technologies). The mean of the luciferase activity was calculated for each technical triplicate and normalized as follows: (Lucx−LucRBC)/(Lucsolvent−LucRBC) with Lucx and Lucsolvent=mean luciferase activity for parasites incubated with compound x and with solvent (DMSO for 1o and PBS for MB), respectively, and LucRBC=mean luciferase activity of non-infected red blood cells (background). IC50 values were calculated using Prism (GraphPad, log(inhibitor) versus normalized response—variable slope) in three independent experiments for the P. falciparum gametocyte assay and five for the P. berghei ex vivo drug assay.\nThe animal experiments described in this part were performed at the Institut de Biologie Moléculaire et Cellulaire (Strasbourg, France), using facilities and protocols adhering to national regulations of laboratory animal welfare in France. […] Parasitaemia was monitored via FACS analysis (FACSCalibur, BD Bioscience). […]"}},
  "note": "Where two headings read alike, the source gives them in different places.",
  "data": [
    {"molecule": "COc1ccc2c(c1)CCC1C2CC[C@@]2(C)C1CC[C@H]2NCc1cc2ccccc2cc1O", "note": "(stereo partly drawn) [1o]", "values": [
      {"measurement": "parasite transmission to mosquitoes", "setting": "[1]", "result": "fully block parasite transmission to mosquitoes"},
      {"measurement": "Hepatic Microsome Stability % remaining after 1 h", "setting": "[2]; Human", "result": "~38", "unit": "%"},
      {"measurement": "Hepatic Microsome Stability % remaining after 1 h", "setting": "[2]; Mouse", "result": "~38", "unit": "%"},
      {"measurement": "remaining at 1 h", "setting": "[2]; human", "result": 38.5, "unit": "%"},
      {"measurement": "remaining at 1 h", "setting": "[2]; mouse", "result": 38.5, "unit": "%"},
      {"measurement": "IC50", "setting": "[3]", "result": "3.1 ± 2.4", "unit": "nM"}
    ]}
  ]
}
